Test [1] has as its system PolyAU double stranded RNA. Description: Fluorescence intercalator displacement (FID) assay, SYBR-safe probe. The note with it: 20 μM compound, 30° C., lower % = stronger binding. The method, then: (§1) The ability of compounds of the invention to bind to DNA and RNA was assessed using a fluorescence intercalator displacement assay. Genomic double stranded DNA (salmon) or PolyAU double stranded RNA is treated with probe molecule (Sybr-Safe) that increases its fluorescence upon binding to nucleic acids.
(§2) polyAU RNA (Polyadenylic acid—Polyuridylic acid sodium salt, double-stranded homopolymer, P1537, Merck) or genomic DNA (Deoxyribonucleic acid sodium salt from salmon testes, D1626, Merck) was dissolved in 1 mM pH 7.4 phosphate buffer (containing 0.27 mM potassium chloride, 13.7 mM sodium chloride) to a concentration of 1 mg/mL in, SybrSafe (SYBR® Safe DNA Gel Stain, ×10,000 in DMSO, S33102 Invitrogen) was used as supplied by the manufacturer in DMSO, and compounds of the invention were prepared as 10 mM stocks in DMSO. These stock solutions were diluted appropriately with each other and 1 mM phosphate buffer to give test solutions comprised of 20 μM compound of the invention, 12500-fold dilution of SybrSafe and 3.76 ng/mL RNA/DNA. Control solutions of RNA/DNA and SybrSafe, RNA/DNA, and SybrSafe at these concentrations were also prepared. Test and control solutions were heated to 30° C. and the fluorescence of each solution was measured using the SYBER filter setting of a StepOnePlus using melt analysis mode (StepOne Software v2.3). The reduction of fluorescence due to the binding of the compound of the invention to the RNA/DNA was calculated as a normalised percentage based on the fluorescence measured due to the control with SybrSafe and RNA/DNA as maximum and the control with only SybrSafe as minimum.
(§3) A reduction in normalised % is indicative of probe displacement and thus strong nucleic acid binding.

In test [2] the test system is Genomic double stranded DNA (salmon). The test is described as above. The settings on record: 20 μM compound, 30° C., lower % = stronger binding. The protocol:
as §1, §2, §3

In test [3] the test system is Staphylococcus aureus (ATCC 43300). Description: Antibacterial MIC, broth microdilution (CLSI). The note with it: for MIC80: Staphylococcus aureus, ATCC43300, read-out: MIC80 S. aureus; for S. aureus Selectivity Indices, Group: SI, IC50 (μM)/MIC80 (μM), HEK293 cytotoxicity. It counts as cell-based. (In general: Dilution methods test growth across graded concentrations, often in twofold steps.)

Test [4] concerns Enterococcus faecalis (ATCC 51299). Description: Antibacterial MIC, broth microdilution (CLSI). The format is cell-based. The settings on record: for MIC80: Enterococcus faecalis, ATCC51299, read-out: MIC80 E. faecalis; for E. faecalis Selectivity Indices, Group: SI, IC50 (μM)/MIC80 (μM), HEK293 cytotoxicity.
Test [5] relates to Escherichia coli (ATCC 25922). Description: Antibacterial MIC, broth microdilution (CLSI). It counts as cell-based. The settings on record: Escherichia coli, ATCC25922; read-out: MIC80 E. coli.
Test [6] concerns T. vaginalis. Description: Trichomonas resorufin assay. The format is cell-based. The settings on record: for T. vaginalis Selectivity Indices, Group: SI, IC50 (μM)/IC50 (μM), HEK293 cytotoxicity; for IC50: Trichomonas vaginalis, read-out: IC50 T. vaginalis.

Consider 15 molecules from patent US20250313546A1, “NUCLEIC ACID BINDERS” (UNIVERSITY OF STRATHCLYDE, priority 2022, published 2025).

Values after ≈ are worked out from the molar mass of the structure shown.

On to `CCCCCCCCCCCCC[N+](C)(C)CCNC(=O)c1cc(NC(=O)c2cc(NC(=O)c3ccc(/C=C/c4cnc5ccccc5c4)cc3)cn2C)cn1C` [Ic12, (E)-N,N-dimethyl-N-(2-(1-methyl-4-(1-methyl-4-(4-(2-(quinolin-3-yl)vinyl)benzamido)-1H-pyrrole-2-carboxamido)-1H-pyrrole-2-carboxamido)ethyl)tridecan-1-aminium], for which the “% Normalised Fluorescence with polyAU RNA” value in test [1] is 38%. Also, the “% Normalised Fluorescence with gDNA” value in test [2] came out at 94%.
On to `CCCCCCCCCCCCCCCCC[N+](C)(C)CCNC(=O)c1cc(NC(=O)c2cc(NC(=O)c3ccc(/C=C/c4cnc5ccccc5c4)cc3)cn2C)cn1C` [Ic16, (E)-N,N-dimethyl-N-(2-(1-methyl-4-(1-methyl-4-(4-(2-(quinolin-3-yl)vinyl)benzamido)-1H-pyrrole-2-carboxamido)-1H-pyrrole-2-carboxamido)ethyl)heptadecan-1-aminium], for which the “% Normalised Fluorescence with polyAU RNA” value in test [1] amounted to 64%. Moreover, the “% Normalised Fluorescence with gDNA” value in test [2] stood at 98%.
The term MIC80 denotes an inhibitory concentration at the 80% level, which refers to growth in some studies and to a panel of isolates in others. As usually defined, the IC50 is the concentration that gives 50% inhibition. In the case of `CCNC(=O)c1cc(NC(=O)c2cc(NC(=O)c3ccc(/C=C/c4cnc5ccccc5c4)cc3)cn2C)cn1C` [IVa6, (E)-N-ethyl-1-methyl-4-(1-methyl-4-(4-(2-(quinolin-3-yl)vinyl)benzamido)-1H-pyrrole-2-carboxamido)-1H-pyrrole-2-carboxamide], the MIC80 in test [3] is less than 5 µM; in test [4], less than 5 µM; in test [5] it was greater than 100 µM. Moreover, the “E. faecalis Selectivity Indices, Group” value in test [4] (Amides) is recorded as “B (Group B: 0.4 < SI <= 1.5)”. In test [6] (Amides), the “T. vaginalis Selectivity Indices, Group” value was “B (Group B: 0.25 < SI <= 0.5)”. Further, the IC50 in test [6] was 1 to 5 µM.
Consider `Cn1cc(NC(=O)c2ccc(/C=C/c3cnc4ccccc4c3)cc2)cc1C(=O)Nc1cc(C(=O)N2CCCCCC2)n(C)c1` [IVb3, (E)-N-(5-(azepane-1-carbonyl)-1-methyl-1H-pyrrol-3-yl)-1-methyl-4-(4-(2-(quinolin-3-yl)vinyl)benzamido)-1H-pyrrole-2-carboxamide], for which the MIC80 was 25 to 100 µM (≈ 15 to 60.1 µg/mL) in test [3], greater than 100 µM in test [4] and greater than 100 µM in test [5]. For the same molecule, in test [6], the IC50 was in the range of 5 to 50 µM.
With `Cn1cc(NC(=O)c2ccc(/C=C/c3cnc4ccccc4c3)cc2)cc1C(=O)Nc1cc(C(=O)N2CCCCC2)n(C)c1` [IVb1, (E)-1-methyl-N-(1-methyl-5-(piperidine-1-carbonyl)-1H-pyrrol-3-yl)-4-(4-(2-(quinolin-3-yl)vinyl)benzamido)-1H-pyrrole-2-carboxamide], the MIC80 is 25 to 100 µM (≈ 14.7 to 58.7 µg/mL) in test [3], greater than 100 µM in test [4] and greater than 100 µM in test [5]. Moreover, the IC50 in test [6] lay within 5 to 50 µM.
On to `Cn1cc(NC(=O)c2ccc(/C=C/c3cnc4ccccc4c3)cc2)cc1C(=O)Nc1cc(C(=O)N2CCSCC2)n(C)c1` [IVb2, (E)-1-methyl-N-(1-methyl-5-(thiomorpholine-4-carbonyl)-1H-pyrrol-3-yl)-4-(4-(2-(quinolin-3-yl)vinyl)benzamido)-1H-pyrrole-2-carboxamide], for which the results for the MIC80 in test [3], in test [4] and in test [5] were 25 to 100 µM (≈ 15.1 to 60.5 µg/mL), greater than 100 µM and greater than 100 µM, respectively. Further, the IC50 in test [6] was 5 to 50 µM.
Regarding `CN(C)CCNC(=O)c1cc(NC(=O)c2cc(NC(=O)c3ccc(/C=C/c4cnc5ccccc5c4)cc3)cn2C)cn1C` [Ref-7, (E)-N-(2-(dimethylamino)ethyl)-1-methyl-4-(1-methyl-4-(4-(2-(quinolin-3-yl)vinyl)benzamido)-1H-pyrrole-2-carboxamido)-1H-pyrrole-2-carboxamide, reference compound], the “S. aureus Selectivity Indices, Group” value in test [3] (Alkyl Amidines and NH Pyrroles) was “A (Group A: SI < 3)”; in test [3] (Quaternary ammoniums) it was “A (Group A: SI < 2)”. Also, the “E. faecalis Selectivity Indices, Group” value in test [4] (Alkyl Amidines and NH Pyrroles) is on record as “A (Group A: SI < 3)”; in test [4] (Quaternary ammoniums) it was “A (Group A: SI < 0.7)”. Besides, the “T. vaginalis Selectivity Indices, Group” value was “A (Group A: SI < 8)” in test [6] (Alkyl Amidines and NH Pyrroles); “A (Group A: SI < 0.8)” in test [6] (Quaternary ammoniums).
Consider `CNC(=N)CCNC(=O)c1cc(NC(=O)c2cc(NC(=O)c3ccc(/C=C/c4cccc(OC)c4)cc3)cn2C)cn1C` [Ia56, (E)-N-(3-imino-3-(methylamino)propyl)-4-(4-(4-(3-methoxystyryl)benzamido)-1-methyl-1H-pyrrole-2-carboxamido)-1-methyl-1H-pyrrole-2-carboxamide], for which the MIC80 was 5 to 25 µM (≈ 2.91 to 14.5 µg/mL) in test [3], 5 to 25 µM (≈ 2.91 to 14.5 µg/mL) in test [4] and greater than 100 µM in test [5].
Take `C/N=C(/CCNC(=O)c1cc(NC(=O)c2cc(NC(=O)c3ccc(/C=C/c4cccc(C(F)(F)F)c4)nc3)cn2C)cn1C)NC` [Ia61, N-(1-methyl-5-((1-methyl-5-(((Z)-3-(methylamino)-3-(methylimino)propyl)carbamoyl)-1H-pyrrol-3-yl)carbamoyl)-1H-pyrrol-3-yl)-6-((E)-3-(trifluoromethyl)styryl)nicotinamide]: the figures for the MIC80 in test [3], in test [4] and in test [5] were 5 to 25 µM (≈ 3.17 to 15.9 µg/mL), 5 to 25 µM (≈ 3.17 to 15.9 µg/mL) and greater than 100 µM, respectively.
With `Cn1cc(NC(=O)c2cc(NC(=O)c3ccc(/C=C/c4cnc5ccccc5c4)cc3)cn2C)cc1C(=O)NCC/C(=N/CC(F)F)NCC(F)F` [Ia57, N—((Z)-3-((2,2-difluoroethyl)amino)-3-((2,2-difluoroethyl)imino)propyl)-1-methyl-4-(1-methyl-4-(4-((E)-2-(quinolin-3-yl)vinyl)benzamido)-1H-pyrrole-2-carboxamido)-1H-pyrrole-2-carboxamide], the MIC80 in test [3] was less than 5 µM; in test [4], 5 to 25 µM (≈ 3.58 to 17.9 µg/mL); in test [5] it was greater than 100 µM.
`C/N=C(/CCNC(=O)c1cc(NC(=O)c2cc(NC(=O)c3ccc(/C=C/c4ccc(F)c(OC)c4)nc3)cn2C)cn1C)NC` [Ia59, 6-((E)-4-fluoro-3-methoxystyryl)-N-(1-methyl-5-((1-methyl-5-(((Z)-3-(methylamino)-3-(methylimino)propyl)carbamoyl)-1H-pyrrol-3-yl)carbamoyl)-1H-pyrrol-3-yl)nicotinamide]: the MIC80 in test [3] was less than 5 µM; in test [4] it was greater than 100 µM; in test [5], greater than 100 µM.
On to `CCCCCCCCCCCCCCCCCC[N+](C)(C)CCNC(=O)c1cc(NC(=O)c2cc(NC(=O)c3ccc(/C=C/c4cnc5ccccc5c4)cc3)cn2C)cn1C` [Ic17, (E)-N,N-dimethyl-N-(2-(1-methyl-4-(1-methyl-4-(4-(2-(quinolin-3-yl)vinyl)benzamido)-1H-pyrrole-2-carboxamido)-1H-pyrrole-2-carboxamido)ethyl)octadecan-1-aminium], for which, in test [6], the IC50 is greater than 50 µM.
Turning to `[H]/N=C(\CCNC(=O)c1cc(NC(=O)c2cc(NC(=O)c3ccc(C=Cc4ccc(N(C)C)cc4)nc3)cn2C)cn1C)N1CCSCC1` [Ib9, (E)-6-(4-(dimethylamino)styryl)-N-(5-((5-((3-imino-3-thiomorpholinopropyl)carbamoyl)-1-methyl-1H-pyrrol-3-yl)carbamoyl)-1-methyl-1H-pyrrol-3-yl)nicotinamide], the MIC80 was less than 5 µM in test [3], 25 to 100 µM (≈ 16.7 to 66.8 µg/mL) in test [4] and greater than 100 µM in test [5].
On to `Cn1cc(NC(=O)c2cc(NC(=O)c3ccc(/C=C/c4ccc(C(F)(F)F)cc4)cc3)cn2C)cc1C(=O)NCCC(=N)N` [Ref-6, reference compound], for which the “S. aureus Selectivity Indices, Group” value in test [3] (Alkyl Amidines and NH Pyrroles) is given as “A (Group A: SI < 3)”. Moreover, the “E. faecalis Selectivity Indices, Group” value in test [4] (Alkyl Amidines and NH Pyrroles) was “A (Group A: SI < 3)”. Also, the “T. vaginalis Selectivity Indices, Group” value in test [6] (Alkyl Amidines and NH Pyrroles) was “A (Group A: SI < 8)”.
For `[H]/N=C(\CCNC(=O)c1cc(NC(=O)c2cc(NC(=O)c3ccc(C=Cc4ccc5nonc5c4)cc3)cn2C)cn1C)NOC` [Ia30, (E)-4-(4-(2-(benzo[c][1,2,5]oxadiazol-5-yl)vinyl)benzamido)-N-(5-((3-imino-3-(methoxyamino)propyl)carbamoyl)-1-methyl-1H-pyrrol-3-yl)-1-methyl-1H-pyrrole-2-carboxamide], the MIC80 was 5 to 25 µM (≈ 3.05 to 15.2 µg/mL) in test [3], 5 to 25 µM (≈ 3.05 to 15.2 µg/mL) in test [4] and greater than 100 µM in test [5].
